Laboratory results taken from ChEMBL document CHEMBL5696441 (Nat Chem Biol, 2011).

What was measured:
[1] = target: Phosphorylase b kinase gamma catalytic chain, skeletal muscle/heart isoform (Homo sapiens) (UniProt Q16816); assay: Inhibition of PHKG1 (unknown origin) assessed as remaining activity at 1 uM by Kinome scan method relative to control
[2] = target: T1, Ephrin type-B receptor 4 (Homo sapiens) (UniProt P54760); assay: Inhibition of EPHB4 (unknown origin) assessed as remaining activity at 1 uM by Kinome scan method relative to control
T1 sequence (whole entry): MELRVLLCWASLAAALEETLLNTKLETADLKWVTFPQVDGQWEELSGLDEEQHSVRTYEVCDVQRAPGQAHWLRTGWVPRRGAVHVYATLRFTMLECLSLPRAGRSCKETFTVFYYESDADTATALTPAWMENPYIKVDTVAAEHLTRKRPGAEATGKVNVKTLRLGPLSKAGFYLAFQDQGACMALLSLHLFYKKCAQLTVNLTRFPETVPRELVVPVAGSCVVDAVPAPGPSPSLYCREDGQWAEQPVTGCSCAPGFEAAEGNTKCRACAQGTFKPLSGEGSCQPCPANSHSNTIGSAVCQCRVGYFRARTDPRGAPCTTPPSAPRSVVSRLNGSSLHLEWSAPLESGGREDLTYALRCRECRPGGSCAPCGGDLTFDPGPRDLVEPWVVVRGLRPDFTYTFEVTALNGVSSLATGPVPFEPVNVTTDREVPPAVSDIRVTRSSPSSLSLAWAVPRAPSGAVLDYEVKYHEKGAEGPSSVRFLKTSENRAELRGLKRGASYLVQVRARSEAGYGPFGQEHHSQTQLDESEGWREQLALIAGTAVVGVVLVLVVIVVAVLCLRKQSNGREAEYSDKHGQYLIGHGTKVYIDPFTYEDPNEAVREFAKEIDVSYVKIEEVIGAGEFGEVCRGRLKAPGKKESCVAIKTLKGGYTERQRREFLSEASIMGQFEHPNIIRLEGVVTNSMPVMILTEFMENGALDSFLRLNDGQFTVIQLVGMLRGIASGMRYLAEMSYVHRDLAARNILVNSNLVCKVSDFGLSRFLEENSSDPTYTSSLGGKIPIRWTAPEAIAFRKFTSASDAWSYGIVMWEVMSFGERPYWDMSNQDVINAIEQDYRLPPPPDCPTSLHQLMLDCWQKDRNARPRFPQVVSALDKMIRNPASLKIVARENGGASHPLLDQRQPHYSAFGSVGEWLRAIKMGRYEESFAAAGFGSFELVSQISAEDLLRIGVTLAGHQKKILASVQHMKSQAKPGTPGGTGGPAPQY

[3] = target: Fibroblast growth factor receptor 1 (Homo sapiens) (UniProt P11362); assay: Inhibition of FGFR1 (unknown origin) assessed as remaining activity at 1 uM by Kinome scan method relative to control
[4] = target: Ribosomal protein S6 kinase alpha-4 (Homo sapiens) (UniProt O75676); assay: Inhibition of N-terminal kinase domain RPS6KA4 (unknown origin) assessed as remaining activity at 1 uM by Kinome scan method relative to control
[5] = target: Serine/threonine-protein kinase LATS2 (Homo sapiens) (UniProt Q9NRM7); assay: Inhibition of LATS2 (unknown origin) assessed as remaining activity at 1 uM by Kinome scan method relative to control
[6] = target: Activin receptor type-1-like (Homo sapiens) (UniProt P37023); assay: Inhibition of ACVRL1 (unknown origin) assessed as remaining activity at 1 uM by Kinome scan method relative to control
[7] = target: Serine/threonine-protein kinase DCLK1 (Homo sapiens) (UniProt O15075); assay: Inhibition of DCAMKL1 (unknown origin) assessed as remaining activity at 1 uM by Kinome scan method relative to control
[8] = target: Tyrosine-protein kinase Blk (Homo sapiens) (UniProt P51451); assay: Inhibition of BLK (unknown origin) assessed as remaining activity at 1 uM by Kinome scan method relative to control
[9] = target: TRAF2 and NCK-interacting protein kinase (Homo sapiens) (UniProt Q9UKE5); assay: Inhibition of TNIK (unknown origin) assessed as remaining activity at 1 uM by Kinome scan method relative to control
[10] = target: T2, Megakaryocyte-associated tyrosine-protein kinase (Homo sapiens) (UniProt P42679); assay: Inhibition of CTK (unknown origin) assessed as remaining activity at 1 uM by Kinome scan method relative to control
T2 sequence (whole entry): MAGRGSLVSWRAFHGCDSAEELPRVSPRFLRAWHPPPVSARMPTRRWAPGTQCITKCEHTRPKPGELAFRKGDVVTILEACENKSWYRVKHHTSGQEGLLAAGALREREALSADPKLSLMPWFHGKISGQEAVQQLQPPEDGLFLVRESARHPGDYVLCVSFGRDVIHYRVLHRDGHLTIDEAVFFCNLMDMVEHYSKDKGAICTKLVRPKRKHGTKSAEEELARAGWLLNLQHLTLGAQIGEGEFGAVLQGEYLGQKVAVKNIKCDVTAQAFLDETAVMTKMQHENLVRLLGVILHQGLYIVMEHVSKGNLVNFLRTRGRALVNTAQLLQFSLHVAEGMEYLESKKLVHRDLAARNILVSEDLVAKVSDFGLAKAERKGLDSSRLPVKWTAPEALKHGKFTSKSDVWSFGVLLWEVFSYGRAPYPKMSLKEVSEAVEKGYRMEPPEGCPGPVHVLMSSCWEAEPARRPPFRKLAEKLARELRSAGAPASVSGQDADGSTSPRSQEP

[11] = target: Serine/threonine-protein kinase PLK3 (Homo sapiens) (UniProt Q9H4B4); assay: Inhibition of PLK3 (unknown origin) assessed as remaining activity at 1 uM by Kinome scan method relative to control

Sequence of Serine/threonine-protein kinase LATS2 (Homo sapiens) (Q9NRM7 whole entry): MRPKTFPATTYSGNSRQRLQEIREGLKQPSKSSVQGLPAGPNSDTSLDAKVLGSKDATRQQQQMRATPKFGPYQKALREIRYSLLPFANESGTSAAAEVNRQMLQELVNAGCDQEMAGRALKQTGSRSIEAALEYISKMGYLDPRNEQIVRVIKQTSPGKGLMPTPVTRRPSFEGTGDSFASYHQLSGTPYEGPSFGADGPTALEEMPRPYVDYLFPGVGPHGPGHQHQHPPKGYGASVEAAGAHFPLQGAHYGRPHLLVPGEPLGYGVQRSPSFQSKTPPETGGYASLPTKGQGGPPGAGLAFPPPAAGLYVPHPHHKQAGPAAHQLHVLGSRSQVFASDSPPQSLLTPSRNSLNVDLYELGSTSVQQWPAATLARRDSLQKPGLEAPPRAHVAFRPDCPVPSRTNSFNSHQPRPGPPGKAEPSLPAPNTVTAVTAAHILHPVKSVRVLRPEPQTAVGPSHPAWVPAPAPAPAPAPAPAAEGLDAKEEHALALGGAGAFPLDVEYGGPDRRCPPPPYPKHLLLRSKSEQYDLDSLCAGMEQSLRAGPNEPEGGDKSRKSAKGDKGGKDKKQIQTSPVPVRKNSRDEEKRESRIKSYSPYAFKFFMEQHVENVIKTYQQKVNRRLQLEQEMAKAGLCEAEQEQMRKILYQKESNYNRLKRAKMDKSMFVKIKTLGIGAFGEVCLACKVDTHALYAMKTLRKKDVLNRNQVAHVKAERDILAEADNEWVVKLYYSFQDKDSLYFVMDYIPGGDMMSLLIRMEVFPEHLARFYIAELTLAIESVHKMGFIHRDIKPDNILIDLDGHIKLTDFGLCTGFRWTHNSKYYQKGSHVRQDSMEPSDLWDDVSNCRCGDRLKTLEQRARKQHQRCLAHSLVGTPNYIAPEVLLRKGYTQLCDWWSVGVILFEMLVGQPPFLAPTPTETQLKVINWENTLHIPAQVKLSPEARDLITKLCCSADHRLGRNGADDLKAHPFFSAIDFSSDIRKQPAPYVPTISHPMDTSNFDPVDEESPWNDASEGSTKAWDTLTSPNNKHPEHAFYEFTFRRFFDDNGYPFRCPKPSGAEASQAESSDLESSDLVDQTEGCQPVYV
Sequence of Fibroblast growth factor receptor 1 (Homo sapiens) (P11362 22-822 limits assumed): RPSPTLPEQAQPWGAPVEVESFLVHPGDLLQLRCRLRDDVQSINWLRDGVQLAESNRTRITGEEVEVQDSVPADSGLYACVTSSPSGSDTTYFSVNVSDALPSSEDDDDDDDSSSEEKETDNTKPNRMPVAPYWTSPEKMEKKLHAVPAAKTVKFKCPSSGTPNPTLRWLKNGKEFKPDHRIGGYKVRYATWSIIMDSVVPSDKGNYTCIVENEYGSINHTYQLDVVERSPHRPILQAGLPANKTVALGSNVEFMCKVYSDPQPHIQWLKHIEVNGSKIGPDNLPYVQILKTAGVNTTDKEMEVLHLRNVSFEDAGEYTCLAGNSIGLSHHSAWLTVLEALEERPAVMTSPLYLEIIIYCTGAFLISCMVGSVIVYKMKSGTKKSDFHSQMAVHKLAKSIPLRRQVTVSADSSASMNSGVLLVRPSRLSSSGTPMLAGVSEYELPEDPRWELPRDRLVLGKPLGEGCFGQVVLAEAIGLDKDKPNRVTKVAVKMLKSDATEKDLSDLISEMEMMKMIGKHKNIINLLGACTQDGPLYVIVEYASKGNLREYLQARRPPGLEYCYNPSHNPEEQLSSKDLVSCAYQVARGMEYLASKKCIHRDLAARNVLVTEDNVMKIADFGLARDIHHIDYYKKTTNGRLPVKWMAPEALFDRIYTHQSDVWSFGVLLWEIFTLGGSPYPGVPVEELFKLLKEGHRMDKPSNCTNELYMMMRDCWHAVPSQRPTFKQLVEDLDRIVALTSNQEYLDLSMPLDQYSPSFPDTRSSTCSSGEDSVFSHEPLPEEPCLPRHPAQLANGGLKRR
Sequence of Activin receptor type-1-like (Homo sapiens) (P37023 whole entry): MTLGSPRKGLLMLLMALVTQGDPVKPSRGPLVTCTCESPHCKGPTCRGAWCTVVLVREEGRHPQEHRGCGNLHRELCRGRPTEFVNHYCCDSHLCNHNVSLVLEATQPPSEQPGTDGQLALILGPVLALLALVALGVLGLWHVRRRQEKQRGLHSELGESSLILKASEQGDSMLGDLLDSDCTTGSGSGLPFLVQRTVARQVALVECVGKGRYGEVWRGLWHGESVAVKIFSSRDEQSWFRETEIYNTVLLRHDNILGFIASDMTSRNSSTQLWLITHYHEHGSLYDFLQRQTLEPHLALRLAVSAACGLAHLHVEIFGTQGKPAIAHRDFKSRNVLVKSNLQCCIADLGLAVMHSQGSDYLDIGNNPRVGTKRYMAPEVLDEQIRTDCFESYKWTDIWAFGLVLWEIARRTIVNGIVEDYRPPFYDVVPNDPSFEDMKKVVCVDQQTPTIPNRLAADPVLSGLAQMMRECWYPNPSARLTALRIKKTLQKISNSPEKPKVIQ
Sequence of Ribosomal protein S6 kinase alpha-4 (Homo sapiens) (O75676 whole entry, looked up, the tested form may be a part): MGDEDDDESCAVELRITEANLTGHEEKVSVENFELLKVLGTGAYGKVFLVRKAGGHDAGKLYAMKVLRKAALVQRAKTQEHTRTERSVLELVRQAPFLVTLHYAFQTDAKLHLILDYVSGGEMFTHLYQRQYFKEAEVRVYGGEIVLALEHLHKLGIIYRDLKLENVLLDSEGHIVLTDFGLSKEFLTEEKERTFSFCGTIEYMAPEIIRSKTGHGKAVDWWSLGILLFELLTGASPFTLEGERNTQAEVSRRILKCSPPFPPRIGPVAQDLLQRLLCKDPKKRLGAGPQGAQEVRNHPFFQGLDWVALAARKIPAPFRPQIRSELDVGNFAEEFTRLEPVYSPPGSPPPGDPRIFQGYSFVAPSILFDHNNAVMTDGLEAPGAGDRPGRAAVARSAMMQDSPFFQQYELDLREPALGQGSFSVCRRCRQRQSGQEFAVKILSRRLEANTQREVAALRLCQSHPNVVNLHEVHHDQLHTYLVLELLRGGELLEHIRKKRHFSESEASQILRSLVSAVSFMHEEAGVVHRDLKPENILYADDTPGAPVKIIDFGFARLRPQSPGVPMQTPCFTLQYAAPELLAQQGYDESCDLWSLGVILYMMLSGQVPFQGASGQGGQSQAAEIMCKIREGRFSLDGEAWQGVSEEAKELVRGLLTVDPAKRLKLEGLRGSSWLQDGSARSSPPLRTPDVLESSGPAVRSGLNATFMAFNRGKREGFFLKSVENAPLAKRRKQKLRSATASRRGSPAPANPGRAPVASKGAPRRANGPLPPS
Sequence of Serine/threonine-protein kinase DCLK1 (Homo sapiens) (O15075 whole entry): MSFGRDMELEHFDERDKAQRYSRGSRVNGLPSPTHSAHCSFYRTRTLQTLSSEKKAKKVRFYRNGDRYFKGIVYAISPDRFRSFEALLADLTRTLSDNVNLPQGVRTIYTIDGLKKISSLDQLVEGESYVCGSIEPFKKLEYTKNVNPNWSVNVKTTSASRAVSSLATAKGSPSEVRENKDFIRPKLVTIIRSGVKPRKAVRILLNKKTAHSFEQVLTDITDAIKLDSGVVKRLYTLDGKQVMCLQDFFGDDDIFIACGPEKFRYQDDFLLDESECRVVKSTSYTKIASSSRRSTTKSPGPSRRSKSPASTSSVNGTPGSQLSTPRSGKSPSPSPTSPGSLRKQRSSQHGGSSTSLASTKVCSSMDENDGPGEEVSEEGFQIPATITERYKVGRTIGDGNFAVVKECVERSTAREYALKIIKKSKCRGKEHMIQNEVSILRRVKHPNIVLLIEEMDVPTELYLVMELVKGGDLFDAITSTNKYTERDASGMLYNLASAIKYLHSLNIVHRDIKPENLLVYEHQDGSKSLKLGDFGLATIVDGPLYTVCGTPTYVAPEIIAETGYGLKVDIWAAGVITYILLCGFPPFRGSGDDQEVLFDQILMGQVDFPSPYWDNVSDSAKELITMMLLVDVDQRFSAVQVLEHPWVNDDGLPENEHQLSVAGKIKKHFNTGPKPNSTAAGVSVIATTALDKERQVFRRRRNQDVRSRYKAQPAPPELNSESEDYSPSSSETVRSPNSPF
Sequence of Phosphorylase b kinase gamma catalytic chain, skeletal muscle/heart isoform (Homo sapiens) (Q16816 whole entry, looked up, canonical isoform): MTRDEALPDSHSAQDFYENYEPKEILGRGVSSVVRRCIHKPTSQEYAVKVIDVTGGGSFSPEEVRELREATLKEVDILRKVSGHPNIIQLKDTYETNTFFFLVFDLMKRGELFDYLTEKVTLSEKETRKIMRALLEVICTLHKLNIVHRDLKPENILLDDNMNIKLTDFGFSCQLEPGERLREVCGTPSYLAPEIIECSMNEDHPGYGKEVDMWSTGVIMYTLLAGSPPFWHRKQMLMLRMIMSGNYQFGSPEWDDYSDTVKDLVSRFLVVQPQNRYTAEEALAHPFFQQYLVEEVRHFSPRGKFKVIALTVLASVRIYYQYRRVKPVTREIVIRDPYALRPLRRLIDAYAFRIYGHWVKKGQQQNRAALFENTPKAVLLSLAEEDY
Sequence of Tyrosine-protein kinase Blk (Homo sapiens) (P51451 2-505 limits assumed): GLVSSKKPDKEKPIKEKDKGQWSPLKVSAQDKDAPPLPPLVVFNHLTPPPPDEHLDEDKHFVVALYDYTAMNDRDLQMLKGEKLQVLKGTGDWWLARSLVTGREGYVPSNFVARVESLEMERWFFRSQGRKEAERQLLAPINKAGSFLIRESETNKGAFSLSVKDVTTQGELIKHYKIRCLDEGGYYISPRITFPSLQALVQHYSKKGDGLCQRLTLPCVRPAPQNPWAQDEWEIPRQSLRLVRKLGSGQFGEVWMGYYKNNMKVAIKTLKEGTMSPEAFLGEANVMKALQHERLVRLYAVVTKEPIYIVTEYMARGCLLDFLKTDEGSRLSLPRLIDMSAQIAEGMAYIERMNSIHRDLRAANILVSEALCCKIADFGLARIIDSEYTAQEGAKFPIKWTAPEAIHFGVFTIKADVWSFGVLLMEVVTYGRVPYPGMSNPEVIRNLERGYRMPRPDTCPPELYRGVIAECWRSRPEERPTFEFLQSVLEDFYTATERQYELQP

Compound	Activity [1] [%]	Activity [2] [%]	Activity [3] [%]	Activity [4] [%]	Activity [5] [%]	Activity [6] [%]	Activity [7] [%]	Activity [8] [%]	Activity [9] [%]	Activity [10] [%]	Activity [11] [%]
Nc1ccccc1Nc1ccc2c(c1)CCc1ccccc1C2=O	92	97	94	94	77	89	92	66	90	71	97
O=C1c2ccc(Nc3ccc(F)cc3F)cc2CCc2ccc(OC[C@H](O)CO)cc21 [Skepinone-L]	97	100	90	82	94	100	97	97	93	80	100
